{
  "source": "paper PMC3195939",
  "about": "(Journal of controlled release : official journal of the …, 2011)",
  "key": {"cell membranes": {"test_system": "cell membranes", "conditions": "studies in fixed cells; cited from earlier work"}, "HeLa cells [1]": {"test_system": "HeLa cells", "experiment": "Uptake of endocytic markers after inhibitor treatment", "type": "cell-based, human"}, "HeLa cells [2]": {"test_system": "HeLa cells", "experiment": "Cellular uptake by live cell confocal fluorescence microscopy", "type": "cell-based, human"}, "HeLa cells [3]": {"test_system": "HeLa cells", "experiment": "Actin filament visualization with rhodamine-phalloidin in fixed cells", "type": "cell-based, human", "conditions": "2 μM for 30 min at 37°C, rhodamine-phalloidin and DAPI"}},
  "data": [
    {"molecule": "kalata B1", "values": [
      {"measurement": "Affinity for proteins or lipids in cell membranes", "setting": "cell membranes", "result": "shows membrane affinity"}
    ]},
    {"molecule": "CCN(c1nc(N)c(C(=O)NC(=N)N)nc1Cl)C(C)C", "note": "[EIPA, 5-(N-ethyl-N-isopropyl)amiloride]", "values": [
      {"measurement": "Effect on uptake of 10K-Dex", "setting": "HeLa cells [1]; 50 μM EIPA", "result": "significantly inhibited"},
      {"measurement": "Effect on uptake of CTX-B", "setting": "HeLa cells [1]; 50 μM EIPA", "result": "significantly inhibit"},
      {"measurement": "Effect on uptake of EGF", "setting": "HeLa cells [1]; 50 μM EIPA, data not shown", "result": "no or little effect"}
    ]},
    {"molecule": "AF488-MCoTI-I: MCoTI-I site-specifically labeled with AlexaFluor488 through the ε-amino of residue Lys4 in loop 1 (SGSDGGVCPKILQRCRRDSDCPGACICRGNGYCG; not fully specified; AlexaFluor488 on Lys4; UniProt P82408 1-34, looked up)", "values": [
      {"measurement": "Surface binding at 4°C", "setting": "HeLa cells [2]; 25 μM, 4°C, live HeLa cells", "result": "no significant surface binding"},
      {"measurement": "Internalization at 4°C", "setting": "HeLa cells [2]; 25 μM, 1 h incubation at 4°C, completely reversible on 1 h at 37°C", "result": "totally inhibited"},
      {"measurement": "Internalization (intracellular distribution)", "setting": "HeLa cells [2]; 25 μM, 1 h incubation at 37°C, serum-free DMEM, live HeLa cells, confocal fluorescence", "result": "clearly visible within perinuclear punctate spots inside the cells"},
      {"measurement": "Inhibition of cellular uptake by EIPA", "setting": "HeLa cells [2]; 50 μM EIPA for 30 min at 37°C before 25 μM cyclotide, 1 h uptake", "result": "≈ 80%"}
    ]},
    {"molecule": "C/C1=C/C(=O)O[C@@H]2C[C@@H](CC[C@H](C)/C=C\\CC1)O[C@@](O)([C@@H]1CSC(=O)N1)C2", "note": "[Lat B, Latrunculin B]", "values": [
      {"measurement": "Effect on actin filament network", "setting": "HeLa cells [3]", "result": "total disruption of the actin filament network"},
      {"measurement": "Effect on uptake of 10K-Dex", "setting": "HeLa cells [1]; 2 μM Lat B, data not shown", "result": "did not significantly inhibit"}
    ]}
  ]
}
